Assay results published in article PMC7868322, “Rational Design of A Novel Small-Molecule HIV-1 Inactivator Targeting Both gp120 and gp41 of HIV-1” (Frontiers in Pharmacology, 2021).
Values joined by “and” are separate entries in the source; they are usually repeats but may differ in a detail not shown here. Equal entries are not always repeated. Where two headings read alike, the source gives them in different places.

Legend:
HIV-1 IIIB (X4) = experiment: Inhibition of HIV-1 infection (p24 ELISA); type: cell-based; conditions: Human immunodeficiency virus 1, MT2; laboratory-adapted strain IIIB, MT-2 cells, p24 ELISA; read-out: IC50, inhibition of HIV-1 IIIB infection
HIV-1 Bal (R5) = experiment: Inhibition of HIV-1 infection (p24 ELISA); type: cell-based; conditions: Human immunodeficiency virus 1; laboratory-adapted strain Bal, CEMx174 5.25 M7 cells, p24 ELISA; read-out: IC50, inhibition of HIV-1 Bal infection
[1] = biological target: T1, 6HB formation between N36 and C34-biotin (Human immunodeficiency virus type 1 group M subtype B, UniProt P04578); experiment: ELISA inhibition of six-helix bundle formation; type: biochemical, HIV-1; conditions: IC50, inhibition of 6HB formation between N36 and C34-biotin, peptides 0.5 μM final
T1 construct: preincubated with N36 peptide (2 μM, 50 μL) at 37°C for 1 h; purchased NIH AIDS Reagent Program
Protocol: An inhibitor (compound or C-peptide control) at graded concentrations was preincubated with N36 peptide (2 μM, 50 μL) at 37°C for 1 h. […] Subsequently, 50 μL of the mixture were added to the wells of the NC-1-coated plate, followed by incubation for 1 h. Then, HRP-labeled streptavidin and the substrate were added sequentially. The optical density at 450 nm was measured using a microplate reader (Tecan, Männedorf, Switzerland).

93/BR/020 (F, R5 and X4) = experiment: Inhibition of HIV-1 clinical virus infection; type: cell-based; conditions: Human immunodeficiency virus 1; HIV-1 clinical virus 93/BR/020 (F, R5 and X4); means ± SD
WT (NL4-3 D36G) = type: cell-based, HIV-1; conditions: T20-resistant virus panel, means ± SD
T20-resistant virus V38A [2] = type: cell-based, HIV-1; conditions: means ± SD
[3] = system: T2635-resistant virus K90E; type: cell-based, HIV-1; conditions: means ± SD
[4] = system: T2635-resistant virus Q66R N126K; type: cell-based, HIV-1; conditions: means ± SD
[5] = system: T2635-resistant virus Q79E N126K; type: cell-based, HIV-1; conditions: means ± SD
[6] = system: T2635-resistant virus K90E N126K; type: cell-based, HIV-1; conditions: means ± SD
[7] = system: T2635-resistant virus H3C; type: cell-based, HIV-1; conditions: T2635-resistant virus H3C (A6V L33S Q66R N126K H132Q E136G); means ± SD
KNH1135 (A, R5) = experiment: microbe, parasite or virus in culture; type: cell-based, HIV-1; conditions: Human immunodeficiency virus 1; inactivation of cell-free virions, clinical virus KNH1135 (A, R5); means ± SD
PBL288 (C, R5) = experiment: Inactivation of cell-free HIV-1 clinical virus; type: cell-based; conditions: Human immunodeficiency virus 1, inactivation of cell-free virions, means ± SD
[8] = system: T20-resistant virus V38A N42D; type: cell-based, HIV-1; conditions: inactivation of cell-free virions, means ± SD
T20-resistant virus V38A [9] = type: cell-based, HIV-1; conditions: inactivation of cell-free virions, means ± SD
[10] = system: T20-resistant virus V38A N42T; type: cell-based, HIV-1; conditions: inactivation of cell-free virions, means ± SD
[11] = system: T2635-resistant virus N113E; type: cell-based, HIV-1; conditions: inactivation of cell-free virions, means ± SD
[12] = system: T2635-resistant virus Q66R N126K; type: cell-based, HIV-1; conditions: inactivation of cell-free virions, means ± SD
[13] = system: T2635-resistant virus K90E N126K; type: cell-based, HIV-1; conditions: inactivation of cell-free virions, means ± SD
[14] = system: T2635-resistant virus Q66R N113E; type: cell-based, HIV-1; conditions: inactivation of cell-free virions, means ± SD
WT (LAI) = experiment: microbe, parasite or virus in culture; conditions: Human immunodeficiency virus 1
Protocol: The inactivation activities of the compounds, alone or in combination, against different cell-free HIV-1 virions were measured as previously described ([Qi et al., 2017]). Briefly, different concentrations of compound or PBS were incubated with 800 TCID50 live virus for 1 h at 4°C. Subsequently, PEG-6000 was added to a final concentration of 3% and incubated for another 1 h at 4°C. The virus was collected by centrifugation of the mixture at 13,000 rpm at 4°C for 30 min. The supernatant was discarded, and the virus was resuspended in 3% PEG-6000 containing 10 mg/mL BSA and centrifuged at 13,000 rpm at 4°C for 30 min. The above procedure was repeated twice to completely remove residual compounds. Finally, the virus particles were resuspended in 100 μL of medium and added to 100 μL of 3 × 10^4 MT-2 or CEMx 174 5.25 M7 cells. After 3-4 days of incubation at 37°C, 50 μL of supernatant per well were collected and mixed with the same volume of 5% Triton X-100. The p24 antigen was detected by ELISA.

HIV-1 IIIB gp120 = HIV-1 IIIB gp120 (Human immunodeficiency virus type 1 group M subtype B, UniProt P04578); experiment: ELISA inhibition of gp120 CD4bs-targeting mAbs binding to gp120; set-up: polystyrene plates were coated with 50 µL of HIV-1 IIIB gp120
Protocol: Flow cytometry was used to detect compounds that competed with gp120 CD4bs-targeting mAbs for binding to gp120. In brief, 100 µL of FD016 at a concentration of 100 µM or PBS was first incubated with CHO-WT cells expressing HIV-1 HXB2 gp120 for 30 min at room temperature, and then gp120 CD4bs-targeting mAbs (5 μg/mL, 100 µL) and FITC-labeled goat anti-human secondary antibody were added successively. After three washes, the cells were analyzed with flow cytometry. ELISA was carried out to detect the activity of compounds that inhibit the binding of soluble CD4 (sCD4) or gp120 CD4bs-targeting mAbs to gp120 as previously described ([Si et al., 2004]; [Curreli et al., 2014]). Briefly, for sCD4 and gp120 binding, 50 µL of HIV-1 IIIB gp120 at 0.5 μg/mL was captured on polystyrene plate coated with sheep anti-gp120 antibody D7324 (Aalto Bio Reagents). sCD4 (ImmunoDiagnostics, Inc.) at 200 ng/mL was then added in the presence of an equal volume of different concentrations of compounds or PBS and incubated at 37°C for 1 h. Next, rabbit anti-sCD4 IgG (ImmunoDiagnostics, Inc.) at 250 ng/mL was added and incubated at 37°C for another 1 h, followed by goat anti-rabbit IgG-biotin (Invitrogen), streptavidin-horseradish peroxidase (Invitrogen). For gp120 CD4bs-targeting mAbs and gp120 binding, polystyrene plates were coated with 50 µL of HIV-1 IIIB gp120 (2 μg/mL in 0.1 mol/L sodium bicarbonate buffer (pH 8.6)) at 4°C overnight and then blocked with PBS containing 2% BSA at 37°C for 2 h. Next, gp120 CD4bs-targeting mAbs at 2 μg/mL were added in the presence of an equal volume of FD028 at different concentrations and incubated at 37°C for 1 h. Horseradish peroxidase (HRP)-labeled goat-anti-human IgG (Sigma-Aldrich) was added sequentially. After adding 3,3′,5,5′-tetramethylbenzidine chromogen substrate and sulfuric acid, the absorbance at 450 nm (A450) was recorded using a Microplate Reader (Tecan, Männedorf, Switzerland).

## CC1(C)CC(NC(=O)C(=O)Nc2ccc(Cl)c(F)c2)CC(C)(C)N1C(=O)COc1ccc(CCN2C(=O)/C(=C/c3ccc(-c4ccc(Cl)c(C(=O)O)c4)o3)SC2=S)cc1 [FD028, (Z)-2-Chloro-5-(5-((3-(4-(2-(4-(2-((4-Chloro-3-Fluorophenyl)amino)-2-oxoacetamido)-2,2,6,6-Tetramethylpiperidin-1-yl)-2-oxoethoxy)phenethyl)-4-oxo-2-Thioxothiazolidin-5-ylidene)methyl)furan-2-yl)benzoic Acid]
HIV-1 IIIB (X4)
  IC50: 330 nM
HIV-1 Bal (R5)
  IC50: 70 nM
[1]
  IC50: 2030 nM and ~2000 nM
93/BR/020 (F, R5 and X4)
  IC50: 380 ± 30 nM
WT (NL4-3 D36G)
  IC50: 170 ± 60 nM
T20-resistant virus V38A [2]
  IC50: 1090 ± 130 nM
[3]
  IC50: 790 ± 280 nM
[4]
  IC50: 320 ± 80 nM
[5]
  IC50: 200 ± 70 nM
[6]
  IC50: 460 ± 110 nM
[7]
  IC50: 270 ± 60 nM
KNH1135 (A, R5)
  EC50: 1230 ± 320 nM
PBL288 (C, R5)
  EC50: 540 ± 180 nM
[8]
  EC50: 630 ± 140 nM
T20-resistant virus V38A [9]
  EC50: 780 ± 190 nM
[10]
  EC50: 320 ± 110 nM
[11]
  EC50: 1200 ± 160 nM
[12]
  EC50: 140 ± 70 nM
[13]
  EC50: 490 ± 60 nM
[14]
  EC50: 360 ± 30 nM
WT (LAI)
  EC50: 40 ± 10 nM
HIV-1 IIIB gp120; ELISA, mAb 2G12, read-out: IC50, inhibition of 2G12 binding to gp120
  IC50: 1420 nM
HIV-1 IIIB gp120; ELISA, mAb 654-30D, read-out: IC50, inhibition of 654-30D binding to gp120
  IC50: 700 nM
HIV-1 IIIB gp120; ELISA, mAb B12, read-out: IC50, inhibition of B12 binding to gp120
  IC50: 460 nM
HIV-1 IIIB gp120; ELISA, mAb HJ16, read-out: IC50, inhibition of HJ16 binding to gp120
  IC50: 770 nM
HIV-1 IIIB gp120; ELISA, mAb N6, read-out: IC50, inhibition of N6 binding to gp120
  IC50: 1230 nM
HIV-1 IIIB gp120; ELISA, mAb VRC01, read-out: IC50, inhibition of VRC01 binding to gp120
  IC50: 420 nM
HIV-1 IIIB gp120; ELISA, range over the mAbs, read-out: IC50, inhibition of binding of gp120 to different gp120 CD4bs-targeting mAbs
  IC50: 420 to 1420 nM
HIV-1 IIIB gp120; IC50, inhibition of 3BNC117 binding to gp120, ELISA, mAb 3BNC117
  IC50: 520 nM
